# Source: patent publication US20230202985A1, “Indoles, Indazoles, and Related Analogs for Inhibiting YAP/TAZ-TEAD” (THE KATHOLIEKE UNIVERSITEIT LEUVEN, priority 2021, published 2023)
# Experiments:
# Type in all cases: cell-based
# NCI-H226 = experiment: Mesothelioma cell line proliferation assay (ATPlite), NCI-H226; settings: Homo sapiens, 144 h; NCI-H226 cells, 6 days with compound, cell viability by ATPlite
# Description: (§1) Mesothelioma cell lines, NCI-H226 and NCI-H2052 (all sourced from the ATCC cell culture collection) are plated in 96-well plates (Corning® 96 Well White Polystyrene Microplate clear flat bottom, white polystyrene (TC-Treated)), at 1500 cells/well in full medium (RPMI 1640 ATCC modification with L-glutamine, HEPES, Phenol Red, Sodium Pyruvate, High glucose, Low sodium bicarbonate and 10% fetal bovine serum). Cells are incubated overnight at 37° C. in an incubator with 5% CO2. Then compounds, dissolved in DMSO, are added in dose-response. Cells are incubated with compound dilutions for another 6 days at 37° C. in an incubator with 5% CO2. Cell viability is quantitated using the ATPlite kit (Perkin-Elmer) and the luminescence is read-out using an Envision instrument (Perkin-Elmer). The amount of relative light units produced using the ATPlite kit is used to calculated percent of inhibition.
# (§2) The activities of some example compounds are depicted in Table 7. The activity ranges A, B and C refer to EC50 values in the mesothelioma cell line proliferation assay as described as follows: “A”: EC50<1 μM; “B”: 1 μM≤EC50≤10 μM and “C”: EC50>10 μM; NT: not tested.
# NCI-H2052 = experiment: Mesothelioma cell line proliferation assay (ATPlite), NCI-H2052; settings: Homo sapiens, 144 h; NCI-H2052 cells, 6 days with compound, cell viability by ATPlite
# Description: as §1, §2
# [1] = test system: YAP/TAZ-TEAD transcription; experiment: Reporter gene assay for measuring the inhibition of YAP/TAZ-TEAD transcription (TEAD-responsive element luciferase reporter in Hek293T cells); settings: Homo sapiens, HEK-293T; Hek293T cells transfected with TEAD-responsive luciferase reporter, 24 hours incubation
# Description: Hek293T cells are cultured in DMEM supplemented with 10% fetal bovine serum, Sodium pyruvate, Sodium bicarbonate, L-glutamine. The cells are harvested and transiently transfected with TEAD-responsive element luciferase reporter. Transfected cells are plated in 384-wells plate containing pre-diluted compounds. After 24 hours incubation at 37° C./5% CO2, assay plates were cooled down to RT and levelled to an equal volume per well, prior to the addition of 25 uL luciferase substrate SteadyLite (Perkin Elmer)/well. The plate was shaken for 10 min at 600 rpm, centrifuged for 1 min at 500 rpm and measured with an Envision reader (PerkinElmer). The amount of relative light units produced by the TEAD reporter is used to calculated percent of inhibition.
# The percent of reporter inhibition was calculated in the presence of a positive control inhibitor (100% inhibition) versus a condition with the presence of the vehicle basal activity of the reporter (0% inhibition). The ability of a test compound to inhibit this activity was determined as:
# Percentage inhibition=[1−((RLU determined in the presence of vehicle−RLU determined for sample with test compound present) divided by (RLU determined in the presence of vehicle−RLU determined for sample with positive control inhibitor))]*100
# The activities of example compounds tested are depicted in Table 6. The activity ranges A, B and C refer to IC50 values in the reporter gene assay as follows: “A”: IC50<1 μM; “B”: 1 μM≤IC50≤20 μM and “C”: IC50>20 μM; NT=not tested.
Compound,EC50 (NCI-H226) [µM],EC50 (NCI-H2052) [µM],EC50 [1] [µM]
"C=CC(=O)NCc1cc2ccccc2n1Cc1ccc(C(F)(F)F)cc1 [compound 31, N-((1-(4-(trifluoromethyl)benzyl)-1H-indol-2-yl)methyl)acrylamide]",< 1,1 to 10,< 1
"C=CC(=O)NCc1nn(-c2ccc(C(F)(F)F)cc2)c2ccc(OCC3CCOC3)cc12 (racemic) [compound 46, N-[[5-[[rac-tetrahydrofuran-3-yl]methoxy]-1-[4-(trifluoromethyl)phenyl]indazol-3-yl]methyl]prop-2-enamide]",< 1,< 1,< 1
"C=CC(=O)NCc1nn(-c2ccc(C(F)(F)F)cc2)c2cccnc12 [compound 40, N-((1-(4-(trifluoromethyl)phenyl)-1H-pyrazolo[4,3-b]pyridin-3-yl)methyl)acrylamide]",< 1,< 1,< 1
"C=CC(=O)Nc1cn(-c2ccc(C(F)(F)F)cc2)c2ccccc12 [compound 20, N-(1-(4-(trifluoromethyl)phenyl)-1H-indol-3-yl)acrylamide]",1 to 10,< 1,< 1

# More lines, now with the values ahead:
EC50 (NCI-H226) [µM],EC50 (NCI-H2052) [µM],EC50 [1] [µM],Compound
< 1,< 1,< 1,"C=CC(=O)NCc1nn(-c2ccc(C(F)(F)F)cc2)c2ccc(OCc3cc[nH]n3)cc12 [compound 58, N-[[5-(1H-pyrazol-3-ylmethoxy)-1-[4-(trifluoromethyl)phenyl]indazol-3-yl]methyl]prop-2-enamide]"
< 1,< 1,< 1,"C=CC(=O)NCc1nn(-c2ccc(C(F)(F)F)cc2)c2ccc(Oc3ccccc3)cc12 [compound 49, N-[[5-phenoxy-1-[4-(trifluoromethyl)phenyl]indazol-3-yl]methyl]prop-2-enamide]"
< 1,< 1,< 1,"C=CC(=O)NCc1nn(-c2ccc(C(F)(F)F)cc2)c2ccc(OCc3ccccc3)cc12 [compound 54, N-[[5-benzyloxy-1-[4-(trifluoromethyl)phenyl]indazol-3-yl]methyl]prop-2-enamide]"
< 1,< 1,< 1,"C=CC(=O)NCc1nn(-c2ccc(C(F)(F)F)cc2)c2ccc(OC[C@@H]3CCOC3)cc12 (single isomer, unassigned) [compound 48]"
